Results on 1 molecule are retold here after patent publication US10221426B2, “Constitutively active PYR/PYL receptor proteins for improving plant stress tolerance” (The Regents of the University of California, priority 2009, dated 2019).

The target of this assay is T1, HAB1 in the presence of PYR1 (Arabidopsis thaliana, UniProt O49686).
T1 construct: made in house; host or cells: E. coli BL21[DE3]pLysS
T1 sequence (O49686 1-191): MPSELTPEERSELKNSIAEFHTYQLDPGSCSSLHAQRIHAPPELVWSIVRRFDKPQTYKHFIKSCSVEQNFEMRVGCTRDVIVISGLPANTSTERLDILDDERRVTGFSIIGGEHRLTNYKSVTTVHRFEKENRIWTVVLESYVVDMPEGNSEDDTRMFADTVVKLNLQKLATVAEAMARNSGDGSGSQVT
T1 sequence (Q9CAJ0 23-511 partner): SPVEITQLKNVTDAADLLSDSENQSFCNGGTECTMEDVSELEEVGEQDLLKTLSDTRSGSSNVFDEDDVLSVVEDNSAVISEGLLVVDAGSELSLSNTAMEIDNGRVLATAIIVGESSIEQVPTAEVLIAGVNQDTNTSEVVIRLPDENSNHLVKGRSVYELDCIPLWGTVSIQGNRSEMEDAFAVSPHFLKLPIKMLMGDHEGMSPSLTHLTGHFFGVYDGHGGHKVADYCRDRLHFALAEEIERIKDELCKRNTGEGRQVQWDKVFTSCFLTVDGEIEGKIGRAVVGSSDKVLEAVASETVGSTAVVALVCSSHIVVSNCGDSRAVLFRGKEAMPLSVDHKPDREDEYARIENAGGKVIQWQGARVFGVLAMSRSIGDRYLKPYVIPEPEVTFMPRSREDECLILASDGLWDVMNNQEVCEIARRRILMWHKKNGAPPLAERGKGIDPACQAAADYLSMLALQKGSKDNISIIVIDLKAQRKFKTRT
The assay is described as follows: PP2C phosphatase assay (pNPP), GST-HAB1 in the presence of PYR1. It counts as biochemical. As to conditions: 1 μM GST-HAB1, 1.5 μM 6×His-PYR1, 50 mM pNPP; read-out: IC50 of inhibition of HAB1 phosphatase activity in the presence of PYR1. The text has this:
Since ABI1 and relatives are negative regulators of the ABA signaling pathway, we hypothesized that the function of the ABA-promoted PYR1-PP2C interaction was to inhibit phosphatase activity and remove a negative input into the pathway, which would then promote signaling. To test this hypothesis, we examined the effects of (+)-ABA on PP2C enzyme kinetics using recombinant GST-HAB1, 6×His-PYR1 or 6×His-PYR1^P88S using the phosphatase substrate pNPP. The ORF of Arabidopsis HAB1 was amplified by PCR from a pUni clone obtained from the ABRC and cloned into pGex-2T to create a GST-HAB1 fusion protein. Both constructs were transformed into BL21[DE3]pLysS. For expression, cells harboring pGex-GST-HAB1 were grown overnight in 20 ml LB and then inoculated to 700 ml media containing 1 mM MnCl2 and continued incubation with shaking at RT for 8 hr. Protein expression was then induced by addition of IPTG to final concentration of 0.5 mM, and cells were cultured overnight at RT. […] Immediately after mixing, reactions were monitored for hydrolysis of pNPP at A405 t˜10 second intervals over 20 minutes using a Wallac plate reader. Reaction progressions were plotted, initial velocities calculated and converted to specific activities using a standard curve for 4-nitrophenol made in the same buffer system volumes/plate reader used for enzymatic reaction measurements. […]

Molecules are shown by their SMILES.

`CC1=CC(=O)CC(C)(C)C1(O)/C=C/C(C)=C\C(=O)O` (single isomer, unassigned; (+)) [(+)-ABA]: the IC50 – broadly, the point on the concentration scale where inhibition reaches its midpoint – amounted to 0.18 µM.
